# Where “and” joins values, the source holds several entries; their conditions need not be identical. Equal values may be shown once. Read-outs that look alike come from different tables or passages of the source.
# What was measured:
# A2780 cells [1] = experiment: MTT cytotoxicity assay, A2780 cells; settings: for Combination index (CI), carboplatin + CBD: A2780, 100 nM CBD
# Protocol: (§1) In separate experiments, cells were seeded in 96‐well plates and after 24 h elapsed they were exposed to different concentrations of drugs or vehicle. Cells were then left in the incubator for a further 24 or 48 h. Then the media was replaced with fresh media containing no drug and the cells were left in the incubator. MTT assay was performed after 96 h elapsed from the time when cells were exposed to drugs or vehicle.
# (§2) The cells were then left in the incubator and MTT assay was performed 96 h following the initial exposure to the drugs.
# (§3) The selective index (SI) is the ratio of mean IC50 values for non‐cancer cells to cancer cells. […] While the isobologram can be considered predominantly as a graphical depiction of drug interactions, the combination index (CI) is a quantitative representation. It relates the actual drug concentration in the combination to the concentration of the single drug that achieves the same effect. […] Here, CI analysis was used to investigate combinations at 50% cytotoxicity. To this end the IC50 of the viability dose–response curves were determined by non‐linear regression curve fit analysis (GraphPad Prism, v5.00).
# (§4) CIA+B is the combination index of A and B; C A the concentration of A applied in combination; C B the concentration of B applied in combination; IC50 A the IC50 of drug A when it was applied individually to the cells; IC50 B = IC50 of drug B when it was applied individually to the cells.
# A2780/CP70 cells [2] = experiment: MTT cytotoxicity assay, A2780/CP70 cells; settings: for Combination index (CI), carboplatin + CBD: A2780/CP70, 100 nM CBD; for Combination index (CI), carboplatin + CBG: A2780/CP70, 100 nM CBG
# Protocol: as §1, §2, §3, §4
# A2780 cells [3] = experiment: Cell cycle analysis (DAPI, NC-3000), A2780 cells; type: cell-based, human; settings: 48 h
# Protocol: (§5) Cells were seeded in T25 flasks at 4 × 10^5 cells per flask and were incubated for 48 h or until they reached confluency. […] After the incubation time elapsed cells were suspended in PBS with a density closer to 1 × 10^6cells/mL. The cells were washed twice with 1× PBS before the addition of 250 μL of lysis buffer (solution 10) supplemented with 10 μg/mL DAPI (solution 12) was added to the samples and incubated for 5 min at 37°C. After incubation, 250 μL of stabilization buffer (solution 11) was added. 12.5 μL of samples were loaded on to an A‐8 slide and were analyzed using the NC‐3000 system.
# A2780/CP70 cells [4] = experiment: Cell cycle analysis (DAPI, NC-3000), A2780/CP70 cells; type: cell-based, human; settings: 48 h
# Protocol: as §5
# A2780 cells [5] = experiment: Mitochondrial membrane potential assay (JC-1), A2780 cells; type: cell-based, human; settings: A2780, 10-50 μM, 24 h, dose-dependent
# Protocol: (§6) The mitochondrial membrane potential assay was performed to detect the loss in mitochondrial potential (de‐polarization), which is a vital step in apoptosis.[36] Cells were seeded in T25 flasks at 4 × 10^5 cells per flask and were incubated for 48 h or until they reached confluency. After the incubation time elapsed, drugs at concentrations of 10, 30, and 50 μM or vehicle were added to the flasks and further incubated for 24 h. After 24 h elapsed, the cells were harvested and suspended in PBS. Cell viability and number were determined by the cell viability assay using via1 cassettes on NC‐3000 system. The samples were diluted in PBS to 1 × 10^6 cells/mL and 2.5 μg/mL of JC‐1 dye was added to each sample. JC‐1 is a […] dye, which stains as fluorescent red as it aggregates in the mitochondrial matrix. In the absence of mitochondrial membrane potential, JC‐1 localizes in the cytosol in its fluorescent green form. Following the addition of JC‐1, the cells were incubated for 10–30 min at 37°C. […] 12.5 μL of samples were loaded on to an A‐8 slide and were analyzed using the NC‐3000 image cytometry. The degree of apoptosis (in proportional to the loss in mitochondrial membrane potential) was measured using a scatter plot of JC‐1 red fluorescence versus JC‐1 green fluorescence.
# A2780/CP70 cells [6] = experiment: Mitochondrial membrane potential assay (JC-1), A2780/CP70 cells; type: cell-based, human; settings: A2780/CP70, 10-50 μM, 24 h, dose-dependent
# Protocol: as §6
# [7] = system: caspase 3/7 activity in A2780 cells; experiment: Caspase 3/7 assay, A2780 cells; type: cell-based, human; settings: A2780, 24 h contact time, dose-dependent, significant above 10 μM
# Protocol: (§7) Sensolyte homogenous caspase 3/7 assay kit was used to determine the caspase activity in ovarian cancer cells when treated with CBG. Cells were seeded in 96‐well plate at 6 × 10^3 cells per well and were incubated for 24 h. CBG was added in concentrations of 10, 20, 30, and 50 μM and incubated for a further 24 h. After the incubation time elapsed, the media was removed and replaced with 150 μL/well of fresh complete media. Caspase 3/7 solution was prepared by diluting the caspase substrate 1:100 with DTT‐containing assay buffer. 50 μL/well caspase substrate was added to the plates, and the cells were incubated for 30 min. Ac‐DEVD‐AMC serves as the fluorogenic indicator for assaying caspase‐3/7 activity. Ac‐DEVD‐AMC generates the AMC fluorophore in the presence of caspase 3/7, which produces bright blue fluorescence. The fluorescence was measured by the FLOUstar OPTIMA plate reader with the excitation at 354 nm and emission at 442 nm.
# (§8) The level of caspase 3/7 was also determined using Apotox‐Glo Triple assay. Cells were seeded and drugs were added as described above in Section 2.6.1. After 24 h incubation, caspase 3/7 reagent was prepared by mixing caspase buffer and substrate and 100 μL of reagent was added to each well for 30 min incubation at room temperature. […] The luminescence was measured by the FLOUstar OPTIMA plate reader.
# [8] = system: caspase 3/7 activity in A2780/CP70 cells; experiment: Caspase 3/7 assay, A2780/CP70 cells; type: cell-based, human; settings: A2780/CP70, 24 h contact time, dose-dependent, significant above 10 μM
# Protocol: as §7, §8
# [9] = high doses such as 1500 mg/day; cited from earlier work
# [10] = MTT cytotoxicity assay, non-cancer PNT2 cells; settings: human, PNT2 normal prostate epithelial cells
# Protocol: (§9) Human ovarian carcinoma cells, A2780 (sensitive to chemotherapeutics), A2780/CP70 (resistant to chemotherapeutics), and non‐cancerous cells including PNT2 (normal prostate epithelial cell line), and/or ARPE19 (human retinal pigment cell line) were maintained according to the ATCC and ECACC guidelines.
# (§10) In vitro chemosensitivity assays were performed using the MTT assay as previously described.[32], [33] Briefly, at 70% confluency, cells were seeded in 96‐well plates at a density of 2000 cells/well. […] After the allocated contact time had elapsed, the media was removed and 0.5% (w/v) MTT solution diluted in complete media (200 μL) was added to each well. Following a 4 h incubation, the supernatants were removed, and the formazan crystals were dissolved in dimethylsulfoxide (150 μL). The absorbance was read at 540 nm on a Tecan Infinite 50 plate UV reader.
# [11] = MTT cytotoxicity assay, non-cancer ARPE19 cells; settings: human, ARPE19 non-cancer retinal pigment cells
# Protocol: as §9, §10
smiles,measurement,setting,value
N.N.O=C([O-])C1(C(=O)[O-])CCC1.[Pt+2] [carboplatin],"Combination index (CI), carboplatin + CBD","A2780 cells [1]; 24 h, at 50% cytotoxicity",0.36
same,"Combination index (CI), carboplatin + CBD","A2780 cells [1]; 48 h, at 50% cytotoxicity",0.17
same,"Combination index (CI), carboplatin + CBD","A2780 cells [1]; 72 h, at 50% cytotoxicity",0.15
same,"Combination index (CI), carboplatin + CBD","A2780 cells [1]; 96 h, at 50% cytotoxicity",0.096
same,"Combination index (CI), carboplatin + CBG","A2780 cells [1]; A2780, 100 nM CBG, 96 h, at 50% cytotoxicity",0.55
same,IC50,"A2780 cells [1]; read-out: IC50 cytotoxicity, recovery, A2780, 24 h exposure then drug washed out, MTT at 96 h",7.9 ± 0.5 µM
same,IC50,"A2780 cells [1]; read-out: IC50 cytotoxicity, recovery, A2780, 48 h exposure then drug washed out, MTT at 96 h",4.7 ± 0.2 µM
same,IC50,"A2780 cells [1]; read-out: IC50 cytotoxicity, recovery, A2780, 48 h exposure then drug washed out, MTT at 96 h, listed as Carboplatin",4.8 ± 0.2 µM
same,IC50,"A2780 cells [1]; read-out: IC50 cytotoxicity, recovery, A2780, 72 h exposure then drug washed out, MTT at 96 h",2.6 ± 0.5 µM
same,IC50,"A2780 cells [1]; read-out: IC50 cytotoxicity, A2780, 24 h contact time, MTT",> 100 µM
same,IC50,"A2780 cells [1]; read-out: IC50 cytotoxicity, A2780, 48 h contact time, MTT",17.3 ± 0.6 µM
same,IC50,"A2780 cells [1]; read-out: IC50 cytotoxicity, A2780, 72 h contact time, MTT",4.3 ± 0.7 µM
same,IC50,"A2780 cells [1]; read-out: IC50 cytotoxicity, A2780, 96 h contact time, MTT",2.57 µM and 2.5 µM and 2.6 µM
same,IC50,"A2780 cells [1]; read-out: IC50 cytotoxicity, A2780, 96 h contact time, MTT, listed as Carboplatin",2.6 ± 0.3 µM
same,"Combination index (CI), carboplatin + CBD",A2780/CP70 cells [2]; 24 h,0.85
same,"Combination index (CI), carboplatin + CBD",A2780/CP70 cells [2]; 48 h,0.78
same,"Combination index (CI), carboplatin + CBD",A2780/CP70 cells [2]; 72 h,0.8
same,"Combination index (CI), carboplatin + CBD",A2780/CP70 cells [2]; 96 h,0.57
same,"Combination index (CI), carboplatin + CBG",A2780/CP70 cells [2]; 48 h,0.78
same,"Combination index (CI), carboplatin + CBG",A2780/CP70 cells [2]; 72 h,0.71
same,"Combination index (CI), carboplatin + CBG",A2780/CP70 cells [2]; 96 h,0.65
same,IC50,"A2780/CP70 cells [2]; read-out: IC50 cytotoxicity, recovery, A2780/CP70, 24 h exposure then drug washed out, MTT at 96 h",66.5 ± 3.4 µM
same,IC50,"A2780/CP70 cells [2]; read-out: IC50 cytotoxicity, recovery, A2780/CP70, 48 h exposure then drug washed out, MTT at 96 h",48.7 ± 0.4 µM
same,IC50,"A2780/CP70 cells [2]; read-out: IC50 cytotoxicity, recovery, A2780/CP70, 72 h exposure then drug washed out, MTT at 96 h",45.5 ± 2.6 µM
same,IC50,"A2780/CP70 cells [2]; read-out: IC50 cytotoxicity, A2780/CP70, 24 h contact time, MTT",> 100 µM
same,IC50,"A2780/CP70 cells [2]; read-out: IC50 cytotoxicity, A2780/CP70, 48 h contact time, MTT",> 100 µM
same,IC50,"A2780/CP70 cells [2]; read-out: IC50 cytotoxicity, A2780/CP70, 72 h contact time, MTT",48 ± 1.9 µM
same,IC50,"A2780/CP70 cells [2]; read-out: IC50 cytotoxicity, A2780/CP70, 96 h contact time, MTT",44.9 ± 3.5 µM
"C=C(C)[C@@H]1CCC(C)=C[C@H]1c1c(O)cc(CCCCC)cc1O [CBD, cannabidiol]",IC50,"A2780 cells [1]; Homo sapiens, A2780, 24 h, read-out: IC50 cytotoxicity",12.3 ± 0.7 µM
same,IC50,"A2780 cells [1]; Homo sapiens, A2780, 48 h, read-out: IC50 cytotoxicity",6.8 ± 1.1 µM
same,IC50,"A2780 cells [1]; Homo sapiens, A2780, 72 h, read-out: IC50 cytotoxicity",4.5 ± 0.1 µM
same,IC50,"A2780 cells [1]; Homo sapiens, A2780, 96 h, read-out: IC50 cytotoxicity",3.5 ± 0.2 µM
same,Cytotoxicity,A2780 cells [1]; human,approximately 90%
same,Selectivity index,A2780/CP70 cells [2],1.57 and 1.28 and 1.78 and 2.02 and 2.49 and 1.52 and 2.35 and 2.48
same,IC50,"A2780/CP70 cells [2]; Homo sapiens, A2780/CP70, 24 h, read-out: IC50 cytotoxicity",16.1 ± 0.6 µM
same,IC50,"A2780/CP70 cells [2]; Homo sapiens, A2780/CP70, 48 h, read-out: IC50 cytotoxicity",11.2 ± 0.7 µM
same,IC50,"A2780/CP70 cells [2]; Homo sapiens, A2780/CP70, 72 h, read-out: IC50 cytotoxicity",7.3 ± 0.4 µM
same,IC50,"A2780/CP70 cells [2]; Homo sapiens, A2780/CP70, 96 h, read-out: IC50 cytotoxicity",5.8 ± 0.8 µM
same,Cells in G0/G1 phase,"A2780 cells [3]; A2780, 10 μM",81.4 ± 1.3%
same,Cells in G0/G1 phase,"A2780 cells [3]; A2780, 30 μM",85 ± 1.5%
same,Cells in S phase,"A2780 cells [3]; A2780, 30 μM",6 ± 1.5%
same,Cells in G0/G1 phase,"A2780 cells [3]; A2780, 50 μM",61.6 ± 1.4%
same,Cells in subG1 phase,"A2780 cells [3]; A2780, 50 μM",11.1 ± 1.0%
same,Cells in G0/G1 phase,"A2780/CP70 cells [4]; A2780/CP70, 10 μM",77.4 ± 1.3%
same,Cells in G0/G1 phase,"A2780/CP70 cells [4]; A2780/CP70, 30 μM",85.1 ± 1.1%
same,Cells in G0/G1 phase,"A2780/CP70 cells [4]; A2780/CP70, 50 μM",64.9 ± 0.9%
same,Cells in subG1 phase,"A2780/CP70 cells [4]; A2780/CP70, 50 μM",6 ± 0.9%
same,Percentage of apoptotic cells (loss of mitochondrial membrane potential),A2780 cells [5],induced an increase in the percentage of apoptotic cells
same,Percentage of apoptotic cells (loss of mitochondrial membrane potential),A2780/CP70 cells [6],induced an increase in the percentage of apoptotic cells
same,Caspase 3/7 activity,[7],increased the caspase 3/7 activity
same,Caspase 3/7 activity,[8],increased the caspase 3/7 activity
same,Tolerability in humans,[9],well tolerated
same,IC50 at 24 h,[10],40.6 ± 2.3 µM
same,IC50 at 48 h,[10],17.7 ± 2.4 µM
same,IC50 at 72 h,[10],17.2 ± 0.6 µM
same,IC50 at 96 h,[10],14.4 ± 1.6 µM
same,IC50 at 24 h,[11],25.3 ± 1.8 µM
same,IC50 at 48 h,[11],14.4 ± 0.9 µM
same,IC50 at 72 h,[11],13 µM
same,IC50 at 96 h,[11],11.7 ± 1.2 µM
COc1ccc(C(=O)c2c(C)n(CCN3CCOCC3)c3cc(I)ccc23)cc1 [AM630],Concentrations at which the antagonist alone induced cytotoxicity,"A2780 cells [1]; A2780, antagonist alone",higher than 1 μM
same,Concentrations at which the antagonist alone induced cytotoxicity,"A2780/CP70 cells [2]; A2780/CP70, antagonist alone",higher than 1 μM
Cc1c(C)c2c(c(C)c1O)CC[C@@](C)(CCC[C@H](C)CCC[C@H](C)CCCC(C)C)O2 [α‐tocopherol],Effect on viability of the cells when used alone,"A2780 cells [1]; alone up to 100 μM, preliminary experiments, cell line not named (A2780 and A2780/CP70 tested)",did not compromise the viability of the cells

# From paper PMC10723784, “Investigation of the cytotoxicity induced by cannabinoids on human ovarian carcinoma cells” (Pharmacology Research & Perspectives, 2023)
